Reference: article PMC8151835, “Phosphinotripeptidic Inhibitors of Leucylaminopeptidases” (International Journal of Molecular Sciences, 2021)
Like-named read-outs stand apart in the source and are kept apart here.

Columns and labels:
[1] = biological target: T1, SsLAP (porcine leucine aminopeptidase) (Sus scrofa, UniProt P28839); assay: Inhibition of porcine kidney leucine aminopeptidase, L-Leu-p-nitroanilide hydrolysis, spectrophotometric at 405 nm; assay type: biochemical; settings: for Ki: Dixon method, substrate L-Leu-p-nitroanilide, 37 °C, pH 8.5, mixture of SR and SS isomers
T1 construct: Leucyl aminopeptidase (SsLAP) was isolated from the porcine kidney; from tissue; host or cells: porcine kidney
T1 sequence (P28839 1-519): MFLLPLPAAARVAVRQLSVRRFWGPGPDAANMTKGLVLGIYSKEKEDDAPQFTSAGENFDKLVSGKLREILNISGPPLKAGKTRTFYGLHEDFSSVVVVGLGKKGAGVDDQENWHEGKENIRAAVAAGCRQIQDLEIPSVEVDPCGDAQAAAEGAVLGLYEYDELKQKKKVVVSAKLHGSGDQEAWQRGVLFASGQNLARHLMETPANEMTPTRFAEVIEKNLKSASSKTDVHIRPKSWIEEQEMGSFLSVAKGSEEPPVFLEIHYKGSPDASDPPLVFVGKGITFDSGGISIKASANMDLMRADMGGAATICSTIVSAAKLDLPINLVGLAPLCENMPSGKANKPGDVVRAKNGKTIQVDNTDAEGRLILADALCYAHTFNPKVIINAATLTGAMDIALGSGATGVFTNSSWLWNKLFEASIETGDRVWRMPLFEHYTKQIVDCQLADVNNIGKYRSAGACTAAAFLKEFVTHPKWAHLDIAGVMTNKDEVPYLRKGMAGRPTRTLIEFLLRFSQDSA
Procedure: (§1) The inhibition type, mechanism, and inhibition constants (Ki) were determined using graphical methods (see Figure 3 and Figure 4 and Tables S1 and S2). The inhibition type was determined by the Lineweaver-Burk plot based on the results of the inhibitory effect of the compounds on the hydrolytic activity of L-Leu-p-nitroanilide. […] It should be remembered that inhibitor activity was appointed for the racemic mixtures. All investigated compound 1–9 contains only S isomer in the P2 position, whereas in the P1 position, both R and S isomers were possible. Comparing the obtained activities of the investigated compounds 1–9 toward mammalian and plant aminopeptidases allows us to make some general observations. […] Additionally, SsLAP has better tolerance for the residue in the P1 position, whereas HvLAP prefers hPhe residue in this position.
Leucyl aminopeptidase (SsLAP) was isolated from the porcine kidney modified method described by Spackman and Ledeme. […] KM values correlate well with those given in the works 0.77 mM [58, 59]. The purity of the enzyme was confirmed by electrophoresis.
The enzymatic reaction in the presence of SsLAP was carried out at 37 °C in 7.5 mM TEA-HCl buffer (pH 8.5), containing 5 mM NaCl. The progress of the reaction was monitored spectrophotometrically (UV-VIS Spectrophotometer Cintra 303, GBC Scientific Equipment Ltd., Victoria, Australia) at a wavelength of 405 nm against a control sample containing no enzyme. The attempting mixture contained: Solution of the synthetic substrate L-Leu-p-nitroanilide in DMSO (substrate concentration: 1.5 to 0.2 mM—final concentration), 7.5 mM TEA-HCl buffer (pH 8.5), containing 5 mM NaCl, the solution of the potential inhibitor in reaction buffer (concentration of compound depending on the braking force), and enzyme (0.005 mg of the sample).
(§2) Kinetic constants KM, Vmax, and KI and type of inhibition was determined by methods Lineweaver-Burk, Dixon, Hanes-Woolf, and method half-inhibitory concentration. In the calculation, linearization methods used weighted regression. The values (Ki) given in the tables are the values calculated by the Dixon method. The Ki values calculated with all the above-mentioned methods close to each other. All measurements were made in three-fold repetitions. The graphs show the average values of the three measurements and Sb.

[2] = biological target: HvLAP (aminopeptidase from barley seeds); assay: Inhibition of barley seed aminopeptidase, L-Leu-p-nitroanilide hydrolysis, spectrophotometric at 405 nm; assay type: biochemical, Hordeum vulgare; settings: Dixon method; substrate L-Leu-p-nitroanilide; 37 °C, pH 7.5; mixture of SR and SS isomers
Procedure: as §1
The aminopeptidase from barley seeds (HvLAP) was isolated and purified according to the procedure described by Oszywa. […] The purity of the enzyme was confirmed by electrophoresis.
The enzymatic reaction in the presence of aminopeptidase from barley seeds (HvLAP) was carried out at 37 °C in 50 mM Tris-HCl buffer (pH 7.5), containing 50 mM NaCl, and 10 mM 2-mercaptoethanol. The progress of the reaction was monitored spectrophotometrically (UV-VIS Spectrophotometer Cintra 303, GBC Scientific Equipment Ltd., Victoria, Australia) at a wavelength of 405 nm against a control sample containing no enzyme. The attempting mixture contained: Solution of the synthetic substrate L-Leu-p-nitroanilide in DMSO (substrate concentration: 1.5 to 0.2 mM—final concentration), 50 mM Tris-HCl buffer (pH 7.5), containing 50 mM NaCl, and 10 mM 2-mercaptoethanol, the solution of the potential inhibitor in reaction buffer (concentration of compound depending on the braking force), and enzyme (0.028 mg of the sample).
as §2

[3] = biological target: T1, SsLAP (porcine leucine aminopeptidase); parameters: method as in PMID 2568128, PMID 7126535; settings: read-out: KM given in the works; cited from earlier work
[4] = tested on: HvLAP (aminopeptidase from barley seeds); parameters: method as in PMID 23434924, doi:10.1007/s11738-015-1789-8; settings: read-out: KM of the isolated enzyme on the synthetic substrate; cited from earlier work

| Ki [1] | Ki [2] | melting point | inhibits SsLAP stronger than HvLAP (selectivity) ([1]; SsLAP over HvLAP) | Km ([1]; SsLAP isolated from porcine kidney, read-out: KM of the isolated enzyme on the synthetic substrate) | Structure (SMILES) | Km [3] | Km [4] |
| --- | --- | --- | --- | --- | --- | --- | --- |
| 507 ± 31 µM | 797 ± 76 µM | 124 to 126 °C |  |  | COC(=O)CCP(=O)(O)C(CC(C)C)NC(=O)[C@@H](N)Cc1ccc(C(=O)c2ccccc2)cc1 (stereo partly drawn) [Compound 9, Methyl 3-[(1-((S)-2-amino-3-(4-benzoylphenyl)propanamido)-3-methylbutyl)phosphinyl]-propanoate] |  |  |
| 130 ± 14 µM | 1300 ± 84 µM | 150 to 152 °C | ~10 times |  | COC(=O)CCP(=O)(O)C(CC(C)C)NC(=O)[C@@H](N)Cc1ccc(-c2ccccc2)cc1 (stereo partly shown) [Compound 7] |  |  |
| 3620 ± 433 µM | 1040 ± 102 µM | 218 to 222 °C |  |  | CSCC[C@H](N)C(=O)NC(CC(C)C)P(=O)(O)CCC(=O)O (stereo partly drawn) [Compound 5, 3-[(1-((S)-2-Amino-4-(methylthio)butanamido)-3-methylbutyl)phosphinyl]propanoic acid] |  |  |
| 229 ± 40 µM | 228 ± 10 µM | 180 to 185 °C |  |  | CSCC[C@H](N)C(=O)NC(CCc1ccccc1)P(=O)(O)CCC(=O)O (stereo partly shown) [Compound 4] |  |  |
| 14 ± 1 µM | 121 ± 19 µM | 174 to 176 °C |  |  | COC(=O)CCP(=O)(O)C(CC(C)C)NC(=O)[C@@H](N)CCO (stereo partly shown) [Compound 3] |  |  |
|  |  |  |  | 860 µM | CC(C)C[C@H](N)C(=O)Nc1ccc([N+](=O)[O-])cc1 [L-Leu-pNA, L-leucine-p-nitroanilide] | 770 µM | 550 µM |
| 532 ± 46 µM | 38 ± 9 µM | 161 to 164 °C |  |  | COC(=O)CCP(=O)(O)C(CCc1ccccc1)NC(=O)[C@@H](N)CCSC (stereo partly drawn) [Compound 1, Methyl 3-[(1-((S)-2-amino-4-(methylthio)butanamido)-3-phenylpropyl)phosphinyl]propanoate] |  |  |
| 1090 ± 73 µM | 649 ± 43 µM | 183 to 184 °C |  |  | COC(=O)CCP(=O)(O)C(CC(C)C)NC(=O)[C@@H](N)CCSC (stereo partly drawn) [Compound 2, Methyl 3-[(1-((S)-2-amino-4-(methylthio)butanamido)-3-methylbutyl)phosphinyl]propanoate] |  |  |
| 95 ± 9 µM | 159 ± 25 µM | 134 to 140 °C (dec.) |  |  | COC(=O)CCP(=O)(O)C(CCc1ccccc1)NC(=O)[C@@H](N)Cc1ccc(C(=O)c2ccccc2)cc1 (stereo partly drawn) [Compound 8, Methyl 3-[(1-((S)-2-amino-3-(4-benzoylphenyl)propanamido)-3-phenylpropyl)phosphinyl]-propanoate] |  |  |
| 175 ± 3 µM | 878 ± 70 µM | 126 to 128 °C |  |  | COC(=O)CCP(=O)(O)C(CCc1ccccc1)NC(=O)[C@@H](N)Cc1ccc(-c2ccccc2)cc1 (stereo partly drawn) [Compound 6, Methyl 3-[(1-((S)-3-([1,1′-biphenyl]-4-yl)-2-aminopropanamido)-3-phenylpropyl)phosphinyl]-propanoate] |  |  |
